Experimental data: ChEMBL document CHEMBL1150656, “Constituents of the stigmas of Crocus sativus and their tyrosinase inhibitory activity” (J Nat Prod, 2002)

Biological target: T1, Tyrosinase (Agaricus bisporus, UniProt O42713)
T1 sequence (O42713 whole entry): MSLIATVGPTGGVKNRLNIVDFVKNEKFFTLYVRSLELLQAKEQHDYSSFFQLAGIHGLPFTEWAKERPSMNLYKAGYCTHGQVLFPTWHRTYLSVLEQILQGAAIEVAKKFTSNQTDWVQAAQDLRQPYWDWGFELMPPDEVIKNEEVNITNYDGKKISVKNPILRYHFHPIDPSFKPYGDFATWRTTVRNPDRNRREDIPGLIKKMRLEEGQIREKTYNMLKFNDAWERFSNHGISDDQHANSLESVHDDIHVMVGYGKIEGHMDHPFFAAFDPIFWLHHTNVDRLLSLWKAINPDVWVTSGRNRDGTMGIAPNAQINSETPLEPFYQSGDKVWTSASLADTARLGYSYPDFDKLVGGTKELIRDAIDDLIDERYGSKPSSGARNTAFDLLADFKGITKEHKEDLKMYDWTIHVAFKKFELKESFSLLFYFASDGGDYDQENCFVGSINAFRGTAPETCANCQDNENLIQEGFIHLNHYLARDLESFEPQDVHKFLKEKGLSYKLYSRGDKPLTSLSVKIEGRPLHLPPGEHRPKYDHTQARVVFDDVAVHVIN
Description: Inhibition of mushroom tyrosinase

Molecule `CC(/C=C/C=C(\C)C(=O)O)=C\C=C\C=C(C)\C=C\C=C(/C)C(=O)O[C@@H]1O[C@H](CO[C@@H]2O[C@H](CO)[C@@H](O)[C@H](O)[C@H]2O)[C@@H](O)[C@H](O)[C@H]1O` [CROCIN 3] has an IC50 of 960 µM.

`CC(/C=C/C=C(\C)C(=O)O[C@@H]1O[C@H](CO[C@@H]2O[C@H](CO)[C@@H](O)[C@H](O)[C@H]2O)[C@@H](O)[C@H](O)[C@H]1O)=C\C=C\C=C(C)\C=C\C=C(/C)C(=O)O[C@@H]1O[C@H](CO[C@@H]2O[C@H](CO)[C@@H](O)[C@H](O)[C@H]2O)[C@@H](O)[C@H](O)[C@H]1O` [CROCIN] gave an IC50 of 140 µM.

With `CC1=C([C@@H](O)CC(=O)O)C(C)(C)C[C@@H](O)C1` [CROCUSATIN H] the IC50 was 870 µM.

Molecule `Oc1ccc(O)cc1` [HYDROQUINONE] has an IC50 of 4500 µM.
